How the values were obtained:
[1] = target: T1, Cholecystokinin receptor type A (Rattus norvegicus, UniProt P30551); assay: Inhibition of [3H]propionyl-CCK-8 specific binding to rat pancreatic Cholecystokinin type A receptor
T1 sequence (P30551 whole entry): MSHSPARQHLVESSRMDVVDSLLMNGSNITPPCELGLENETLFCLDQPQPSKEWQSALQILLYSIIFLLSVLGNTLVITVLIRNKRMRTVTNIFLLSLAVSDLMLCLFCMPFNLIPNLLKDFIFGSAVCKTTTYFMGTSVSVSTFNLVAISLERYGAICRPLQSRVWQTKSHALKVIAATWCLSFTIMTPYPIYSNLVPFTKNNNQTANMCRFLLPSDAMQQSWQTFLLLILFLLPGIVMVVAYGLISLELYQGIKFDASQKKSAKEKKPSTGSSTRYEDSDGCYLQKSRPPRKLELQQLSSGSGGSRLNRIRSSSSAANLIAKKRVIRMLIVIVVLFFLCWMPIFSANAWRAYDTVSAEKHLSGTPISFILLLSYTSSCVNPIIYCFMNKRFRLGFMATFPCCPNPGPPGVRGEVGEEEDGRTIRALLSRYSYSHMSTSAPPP

[2] = target: T2, Gastrin/cholecystokinin type B receptor (Rattus norvegicus, UniProt P30553); assay: Inhibition of [3H]propionyl-CCK-8 specific binding to rat cerebral cortex membranes Cholecystokinin type B receptor; type: cell membranes, Membrane
T2 sequence (P30553 whole entry): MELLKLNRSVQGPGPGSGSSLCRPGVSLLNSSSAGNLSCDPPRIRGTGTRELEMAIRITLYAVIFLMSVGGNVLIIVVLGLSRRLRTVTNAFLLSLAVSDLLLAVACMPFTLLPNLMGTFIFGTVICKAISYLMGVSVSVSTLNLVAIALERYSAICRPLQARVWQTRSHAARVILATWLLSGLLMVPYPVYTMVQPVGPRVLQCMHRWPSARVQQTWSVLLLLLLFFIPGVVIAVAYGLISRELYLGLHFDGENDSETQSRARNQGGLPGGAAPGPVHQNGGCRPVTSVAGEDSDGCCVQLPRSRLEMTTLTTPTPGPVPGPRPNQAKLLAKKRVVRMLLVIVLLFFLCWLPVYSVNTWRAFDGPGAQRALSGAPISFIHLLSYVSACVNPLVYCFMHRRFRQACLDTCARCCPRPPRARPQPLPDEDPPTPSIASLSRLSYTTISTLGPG

[3] = The compound was tested to antagonize the CCK-8 induced amylase secretion from pancreatic acini; type: functional

IC50 [1] [nM] | IC50 [2] [nM] | IC50 [3] [nM] | Compound
8.2 | 5800 | 196 | Cc1ccccc1NC(=O)NCCCC[C@@H](CC(=O)O)NC(=O)[C@H]1Cc2c([nH]c3ccccc23)[C@@H]2C[C@@H](NC(=O)OCc3ccccc3)C(=O)N12
324 | > 10000 | – | Cc1ccccc1NC(=O)NCCCC[C@@H](CC(=O)O)NC(=O)[C@@H]1Cc2c([nH]c3ccccc23)[C@H]2C[C@H](NC(=O)OCc3ccccc3)C(=O)N21
– | 6.7 | – | Cc1ccccc1NC(=O)NCCCC[C@@H](CC(=O)O)NC(=O)[C@@](C)(Cc1c[nH]c2ccccc12)NC(=O)OC1C2CC3CC(C2)CC1C3 (some centres not stated) [PD-170292]
– | > 10000 | – | O=C(N[C@H]1C[C@@H]2c3[nH]c4ccccc4c3C[C@@H](C(=O)N[C@@H](Cc3ccccc3)C(=O)O)N2C1=O)OCc1ccccc1
